From patent publication US5243042A, “1-thiaguanosine and process for preparing oxanosine and 1-thiaguanosine” (Hoffmann-La Roche Inc., priority 1990, dated 1993)
≈ marks a conversion by molar mass, not a printed value.

Tests used:
Test in all cases: MIC by agar dilution method, minimal agar medium
Type in all cases: cell-based
E. coli 257 = details: Escherichia coli, over-night incubation at 36° C., read-out: MIC (minimum inhibitory concentration)
Description: (§1) To avoid possible antimetabolite reversal, a minimal agar medium^2 was employed. Inoculum was grown over-night at 36° C. in minimal broth medium and diluted a hundred-fold before use. Agar plates containing a serial dilution of the compounds of formula Ia were inoculated using a Steer's replicator. Approximately 3 μL was applied per spot. MICs were recorded after over-night incubation at 36° C.
(§2) ^1 Barry, A. L., Procedure for Testing Antimicrobial Agents in Agar Media: Theoretical Considerations, p. 1-26. In Victor Lorian (Ed.), Antibiotics in Laboratory Medicine, 2nd ed. The Williams & Wilkins Co., Baltimore.
(§3) ^2 Davis, B. D.; Mingioli, E. S. J. BACTERIOL. 1950, 60, 17-28.
(§4) The minimum inhibitory concentrations of 1-thiaguanosine, the compound of formula Ia, against various bacteria were as follows: […]

E. coli 2721B = details: Escherichia coli, over-night incubation at 36° C., read-out: MIC (minimum inhibitory concentration)
Description: as §1, §2, §3, §4

E. coli 94 = details: Escherichia coli, over-night incubation at 36° C., read-out: MIC (minimum inhibitory concentration)
Description: as §1, §2, §3, §4

E. coli ATCC 25922 = details: Escherichia coli, ATCC25922, over-night incubation at 36° C., read-out: MIC (minimum inhibitory concentration)
Description: as §1, §2, §3, §4

E. coli B = details: Escherichia coli, over-night incubation at 36° C., read-out: MIC (minimum inhibitory concentration)
Description: as §1, §2, §3, §4

Prov. rettgeri ATTC 9250 = details: Providencia rettgeri, ATTC9250, over-night incubation at 36° C., read-out: MIC (minimum inhibitory concentration)
Description: as §1, §2, §3, §4

[1] = tested on: S. typhimurium ATTC 13311; details: Salmonella enterica, over-night incubation at 36° C., read-out: MIC (minimum inhibitory concentration)
Description: as §1, §2, §3, §4

S. typhimurium LT-2 = details: Salmonella enterica, over-night incubation at 36° C., read-out: MIC (minimum inhibitory concentration)
Description: as §1, §2, §3, §4

Nc1nc2c(ncn2[C@@H]2O[C@H](CO)[C@@H](O)[C@H]2O)c(=O)s1 [1-thiaguanosine, 5-amino-3-(β-D-ribofuranosyl)imidazo[4,5-d][1,3]thiazin-7(3H)-one] gave an MIC (E. coli 257) of 16 µg/mL (≈ 53.3 µM), an MIC (E. coli 2721B) of 128 µg/mL (≈ 426 µM) and an MIC (E. coli 94) of 32 µg/mL (≈ 107 µM). The MIC (E. coli ATCC 25922) was 128 µg/mL (≈ 426 µM), the MIC (E. coli B) was 128 µg/mL (≈ 426 µM) and the MIC (Prov. rettgeri ATTC 9250) was 4 µg/mL (≈ 13.3 µM). The MIC [1] was 8 µg/mL (≈ 26.6 µM) and the MIC (S. typhimurium LT-2) was 8 µg/mL (≈ 26.6 µM).
